Legend:
[1] = molecular target: T1, Discoidin Domain Receptor Tyrosine Kinase 2 (DDR2 N456S) (Homo sapiens, UniProt Q16832, N456S); assay: SelectScreen kinase profiling at […] CT-179, ATP at Km; format: biochemical
T1 sequence (Q16832 22-855 N456S): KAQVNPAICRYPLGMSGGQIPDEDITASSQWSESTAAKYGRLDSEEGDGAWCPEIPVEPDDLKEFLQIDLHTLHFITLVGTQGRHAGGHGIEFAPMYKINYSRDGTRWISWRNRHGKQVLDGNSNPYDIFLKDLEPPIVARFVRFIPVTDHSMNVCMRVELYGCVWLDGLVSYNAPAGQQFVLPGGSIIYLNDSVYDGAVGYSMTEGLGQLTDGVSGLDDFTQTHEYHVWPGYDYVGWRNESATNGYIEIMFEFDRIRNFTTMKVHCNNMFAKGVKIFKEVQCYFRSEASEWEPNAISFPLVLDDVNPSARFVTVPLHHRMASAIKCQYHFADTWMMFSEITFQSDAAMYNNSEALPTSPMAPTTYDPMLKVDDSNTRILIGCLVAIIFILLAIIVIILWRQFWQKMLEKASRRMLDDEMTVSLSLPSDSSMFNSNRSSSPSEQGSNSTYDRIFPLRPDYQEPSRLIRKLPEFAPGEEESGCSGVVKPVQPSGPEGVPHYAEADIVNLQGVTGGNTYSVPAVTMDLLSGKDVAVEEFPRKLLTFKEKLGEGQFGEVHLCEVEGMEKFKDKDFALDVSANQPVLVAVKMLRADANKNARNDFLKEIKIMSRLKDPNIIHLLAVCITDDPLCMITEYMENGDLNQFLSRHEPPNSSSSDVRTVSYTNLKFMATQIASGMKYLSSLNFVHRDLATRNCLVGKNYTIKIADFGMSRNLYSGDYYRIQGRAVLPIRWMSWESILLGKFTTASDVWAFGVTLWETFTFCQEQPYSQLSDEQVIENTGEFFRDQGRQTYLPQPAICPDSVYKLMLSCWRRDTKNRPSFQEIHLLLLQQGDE

OLIG2 = molecular target: T2, OLIG2 (Homo sapiens, UniProt Q13516); format: cell-based
T2 sequence (Q13516 1-323): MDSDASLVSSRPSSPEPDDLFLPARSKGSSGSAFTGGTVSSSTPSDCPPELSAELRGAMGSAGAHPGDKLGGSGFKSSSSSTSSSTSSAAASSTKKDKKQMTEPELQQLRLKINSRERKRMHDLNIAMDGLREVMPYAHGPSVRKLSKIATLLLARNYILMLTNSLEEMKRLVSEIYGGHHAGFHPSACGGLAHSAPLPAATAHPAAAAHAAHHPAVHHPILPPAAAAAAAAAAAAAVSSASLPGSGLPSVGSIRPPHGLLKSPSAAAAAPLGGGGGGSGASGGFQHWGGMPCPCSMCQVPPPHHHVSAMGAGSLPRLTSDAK

[2] = molecular target: T3, Fetal Liver Tyrosine Kinase 3 (FLT3) (Homo sapiens, UniProt P36888); assay: SelectScreen kinase profiling at ATP Km, with dose-response follow-up; format: biochemical
T3 sequence (P36888 27-993): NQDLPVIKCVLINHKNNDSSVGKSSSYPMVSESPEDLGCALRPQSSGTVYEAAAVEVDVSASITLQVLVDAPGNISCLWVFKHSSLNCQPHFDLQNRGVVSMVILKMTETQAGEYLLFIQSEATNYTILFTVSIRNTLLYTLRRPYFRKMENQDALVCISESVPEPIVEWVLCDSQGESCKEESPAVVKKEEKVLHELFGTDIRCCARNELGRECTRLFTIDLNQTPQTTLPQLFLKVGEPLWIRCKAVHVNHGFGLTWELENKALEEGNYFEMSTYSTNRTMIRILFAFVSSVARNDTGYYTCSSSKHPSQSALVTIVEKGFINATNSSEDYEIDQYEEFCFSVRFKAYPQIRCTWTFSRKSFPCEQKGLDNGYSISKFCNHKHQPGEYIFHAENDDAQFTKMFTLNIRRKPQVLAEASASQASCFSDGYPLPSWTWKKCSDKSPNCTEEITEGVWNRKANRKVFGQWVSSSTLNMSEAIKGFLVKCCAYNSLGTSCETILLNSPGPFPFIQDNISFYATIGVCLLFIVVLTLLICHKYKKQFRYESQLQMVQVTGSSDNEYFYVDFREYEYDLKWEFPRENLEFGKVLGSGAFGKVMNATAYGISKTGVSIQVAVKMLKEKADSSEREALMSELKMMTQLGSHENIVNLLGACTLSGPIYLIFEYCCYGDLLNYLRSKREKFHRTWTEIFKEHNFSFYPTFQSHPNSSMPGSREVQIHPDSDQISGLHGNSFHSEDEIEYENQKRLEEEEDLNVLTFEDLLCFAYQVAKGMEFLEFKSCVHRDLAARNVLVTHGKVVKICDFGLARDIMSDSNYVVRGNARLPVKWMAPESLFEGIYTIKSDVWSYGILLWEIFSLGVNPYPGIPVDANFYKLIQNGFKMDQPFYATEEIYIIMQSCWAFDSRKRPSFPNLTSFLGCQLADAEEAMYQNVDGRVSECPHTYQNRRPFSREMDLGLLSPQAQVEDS

Question: Which “% inhibition at 1 μM” value [1] does the source give for Cc1cc(NCCCN(C)C)nc(NC(=O)Nc2ccc(Cl)c(Cl)c2)n1 [CT-179] here?
Answer: 87

Question: What about the IC50 (OLIG2) of the same compound?
Answer: 1250 nM

Question: What about the IC50 [2] of the same compound?
Answer: 20 nM
